From publication PMC10041525, “New Dual Inhibitors of Bacterial Topoisomerases with Broad-Spectrum Antibacterial Activity and In Vivo Efficacy against Vancomycin-Intermediate Staphylococcus aureus” (Journal of Medicinal Chemistry, 2023)
Converted amounts (≈) assume the structure as drawn. Like-named read-outs stand apart in the source and are kept apart here.

Legend:
[1] = tested on: Chinese hamster ovary K1 cells; conditions: 150 µM
[2] = tested on: Chinese hamster ovary K1 cells; assay: in vitro micronucleus test; conditions: with S9, 150 µM
[3] = tested on: Neisseria gonorrhoeae (n = 12); assay: MIC broth microdilution at IHMA Europe; assay type: cell-based; conditions: for MIC: Neisseria gonorrhoeae, read-out: MIC
[4] = tested on: N. gonorrhoeae ATCC 49226; assay: IHMA QC MIC; assay type: cell-based; conditions: Neisseria gonorrhoeae, ATCC49226; QC strain N. gonorrhoeae ATCC 49226, test date 2021-11-18; read-out: MIC
Text: Supplement jm2c01905_si_004.xlsx, sheet "QC" | column: MIC [µg/mL]

[5] = tested on: N. gonorrhoeae ATCC 49226; set-up: method as in earlier work; conditions: QC range for N. gonorrhoeae ATCC 49226, ref CLSI; cited from earlier work
S. pneumoniae ATCC 49619 = tested on: S. pneumoniae ATCC 49619; set-up: method as in earlier work; conditions: QC range for S. pneumoniae ATCC 49619, ref CLSI; cited from earlier work
E. coli ATCC 25922 = tested on: E. coli ATCC 25922; set-up: method as in earlier work; conditions: QC range for E. coli ATCC 25922, ref CLSI; cited from earlier work
H. influenzae ATCC 49247 = tested on: H. influenzae ATCC 49247; set-up: method as in earlier work; conditions: QC range for H. influenzae ATCC 49247, ref CLSI; cited from earlier work

Compound: c1ccc2c(c1)cc1ccc3cccc4ccc2c1c34 [Benzo[a]pyrene]
- % Cytostasis [1]: 8.3%
- No. binucleate cells [2]: 1702

Compound: COCC1=C(C(=O)O)N2C(=O)[C@@H](NC(=O)/C(=N\OC)c3csc(N)n3)[C@H]2SC1 [Cefpodoxime, cefpodoxime]
- Cumulative % at MIC ([3]; MIC 0.015 µg/mL): 8.3%
- No. of isolates at MIC ([3]; MIC 0.015 µg/mL): 1
- Cumulative % at MIC ([3]; MIC 0.03 µg/mL): 16.7%
- No. of isolates at MIC ([3]; MIC 0.03 µg/mL): 1
- Cumulative % at MIC ([3]; MIC 0.06 µg/mL): 41.7%
- No. of isolates at MIC ([3]; MIC 0.06 µg/mL): 3
- Cumulative % at MIC ([3]; MIC 0.5 µg/mL): 66.7%
- No. of isolates at MIC ([3]; MIC 0.5 µg/mL): 1
- Cumulative % at MIC ([3]; MIC 1 µg/mL): 83.3%
- No. of isolates at MIC ([3]; MIC 1 µg/mL): 2
- Cumulative % at MIC ([3]; MIC 2 µg/mL): 100.0%
- No. of isolates at MIC ([3]; MIC 2 µg/mL): 2
- Cumulative % at MIC ([3]; MIC […]): 58.3%
- No. of isolates at MIC ([3]; MIC […]): 2
- MIC ([3]; isolate IHMA 1123853): 1 µg/mL (≈ 2.34 µM)
- MIC ([3]; isolate IHMA 1130935): 0.03 µg/mL (≈ 0.0702 µM)
- MIC ([3]; isolate IHMA 1130989): 0.015 µg/mL (≈ 0.0351 µM)
- MIC ([3]; isolate IHMA 1130991): 1 µg/mL (≈ 2.34 µM)
- MIC ([3]; isolate IHMA 1137292): 0.5 µg/mL (≈ 1.17 µM)
- MIC ([3]; isolate IHMA 1145734): 0.25 µg/mL (≈ 0.585 µM)
- MIC ([3]; isolate IHMA 1145735): 0.06 µg/mL (≈ 0.14 µM)
- MIC ([3]; isolate IHMA 1165897): 0.06 µg/mL (≈ 0.14 µM)
- MIC ([3]; isolate IHMA 1194748): 0.06 µg/mL (≈ 0.14 µM)
- MIC ([3]; isolate IHMA 1194750): 0.25 µg/mL (≈ 0.585 µM)
- MIC ([3]; isolate IHMA 1546199): 2 µg/mL (≈ 4.68 µM)
- MIC ([3]; isolate IHMA 1546215): 2 µg/mL (≈ 4.68 µM)
- MIC [4]: 0.06 µg/mL (≈ 0.14 µM)
- MIC, CLSI Range [5]: 0,03 - 0,12 µg/mL
- MIC, CLSI Range (S. pneumoniae ATCC 49619): 0,03 - 0,12 µg/mL
- MIC, CLSI Range (E. coli ATCC 25922): 0,25 - 1 µg/mL
- MIC, CLSI Range (H. influenzae ATCC 49247): 0,25 - 1 µg/mL
